Measurements published in patent US20240252527A9, “NUCLEOSIDE DRUGS FOR THE TREATMENT OR PREVENTION OF CORONAVIRUS INFECTION AND THEIR USES” (Miracure Biotechnology Limited, priority 2022, published 2024).
Where two headings read alike, the source gives them in different places.

What was measured:
[1] = system: OC43; experiment: OC43 Huh7 CPE assay (cytopathic experiment); assay type: cell-based, coronavirus OC43 (HCoV-OC43); details: for EC50: read-out: OC43 Huh7 CPE assay (μM) EC50; for EC90: read-out: OC43 Huh7 CPE assay (μM) EC90
Procedure: (§1) Cells were seeded into microplates at a certain density and cultured overnight in a incubator at 5% CO2, 37° C. The next day, double-diluted compound and virus were added. It was set up a cell control group (cells without treatment with a compound or virus infection), a virus control group (cells infected with virus, no compound treatment) and a culture medium control group (medium only). Cells were cultured in the incubator for 3 days (229E) or 7 days (OC43). Cytotoxicity experiments were performed under the same conditions as antiviral experiments, but without virus infection. Cell viability was tested using a cell viability assay kit Cell Titer Glo (Promega).
(§2) The antiviral activity and cytotoxicity of the compounds were expressed by the inhibition rate (%) and cell viability (%) of the compounds against virus-induced cytopathic effects at different concentrations, respectively. Nonlinear fitting analysis on the inhibition rate and cell viability of the compounds were carried out with the GraphPad Prism, and the half effective concentration (EC50), the […] effective concentration (EC90), the half cytotoxic concentration (CC50) and the 90% cytotoxic concentration of the compound […] values were calculated.

[2] = system: 229E; experiment: 229E MRC5 CPE assay (cytopathic experiment); assay type: cell-based, coronavirus 229E (HCoV-229E)
Procedure: as §1, §2

[3] = Betacoronavirus 1, Huh-7, 168 h, Huh7 cells, OC43 virus, 7 days, Cell Titer Glo
[4] = Human coronavirus 229E, MRC5, 72 h; read-out: 229E MRC5 CPE assay (μM) EC50
[5] = Human coronavirus 229E, MRC5, 72 h; read-out: 229E MRC5 CPE assay (μM) EC90
[6] = Betacoronavirus 1, OC43, Huh-7, 168 h
[7] = Human coronavirus 229E, MRC5, 72 h, read-out: 229E MRC5 CPE assay (μM) EC50
[8] = Human coronavirus 229E, MRC5, 72 h, read-out: 229E MRC5 CPE assay (μM) EC90

Row | Structure (SMILES) | EC50 [1, 3] | EC90 [1, 3] | EC50 [2, 4] | EC90 [2, 5] | EC50 [1, 6] | EC90 [1, 6] | EC50 [2, 7] | EC90 [2, 8]
1 | CCC(CC)COC(=O)[C@H](C)NP(=O)(OC[C@H]1O[C@@](C#N)(c2ccc3c(N)ncnn23)[C@H](O)[C@@H]1O)Oc1ccc(Nc2ccnc3cc(Cl)ccc23)cc1CN(CC)CC (stereo partly shown) [Compound 016] | > 0.5 µM | > 0.5 µM | > 0.5 µM | > 0.5 µM |  |  |  | 
2 | CCC(CC)COC(=O)[C@H](C)NP(=O)(OC[C@H]1O[C@@](C#N)(c2ccc3c(N)ncnn23)[C@H](O)[C@@H]1O)ONC(=N)c1ccccc1 (stereo partly shown) [Compound 028] |  |  |  |  | > 0.5 µM | > 0.5 µM | > 0.5 µM | > 0.5 µM
3 | CCCC(CCC)C(=O)OCOP(=O)(NC(C)(C)C(=O)OC(C)C)OC[C@H]1O[C@@](C#N)(c2ccc3c(N)ncnn23)[C@H](O)[C@@H]1O (stereo partly shown) [Compound 034] |  |  |  |  | 0.1 to 0.5 µM | > 0.5 µM | 0.1 to 0.5 µM | > 0.5 µM
4 | CCCC(CCC)C(=O)OCO[P@](=O)(N[C@H](C)C(=O)OC(C)C)OC[C@H]1O[C@@](C#N)(c2ccc3c(N)ncnn23)[C@H](O)[C@@H]1O [Compound 036] |  |  |  |  | 0.1 to 0.5 µM | > 0.5 µM | 0.1 to 0.5 µM | 0.1 to 0.5 µM
5 | CCCC(CCC)C(=O)O[C@@H]1[C@@H]2OP(=O)(O)OC[C@H]2O[C@@]1(C#N)c1ccc2c(N)ncnn12 [Compound 057] |  |  |  |  | 0.1 to 0.5 µM | > 0.5 µM | > 0.5 µM | > 0.5 µM
6 | CCC(CC)COC(=O)[C@H](C)N[P@](=O)(OC[C@H]1O[C@@](C#N)(c2ccc3c(N)ncnn23)[C@H](O)[C@@H]1O)Oc1ccc(Nc2ccnc3cc(Cl)ccc23)cc1CN(CC)CC [Compound 062] | > 0.5 µM | > 0.5 µM | > 0.5 µM | > 0.5 µM |  |  |  | 
7 | CCC(CC)COC(=O)[C@H](C)N[P@@](=O)(OC[C@H]1O[C@@](C#N)(c2ccc3c(N)ncnn23)[C@H](O)[C@@H]1O)Oc1ccc(Nc2ccnc3cc(Cl)ccc23)cc1CN(CC)CC [Compound 063] | > 0.5 µM | > 0.5 µM | > 0.5 µM | > 0.5 µM |  |  |  | 
8 | CCC(CC)COC(=O)[C@H](C)N[P@@](=O)(OCCN(CC)CCCC(C)Nc1ccnc2cc(Cl)ccc12)OC[C@H]1O[C@@](C#N)(c2ccc3c(N)ncnn23)[C@H](O)[C@@H]1O (stereo partly shown) [Compound 068] |  |  |  |  | > 0.5 µM | > 0.5 µM | > 0.5 µM | > 0.5 µM
9 | CCC(CC)COC(=O)[C@H](C)N[P@](=O)(OCCN(CC)CCCC(C)Nc1ccnc2cc(Cl)ccc12)OC[C@H]1O[C@@](C#N)(c2ccc3c(N)ncnn23)[C@H](O)[C@@H]1O (stereo partly shown) [Compound 069] |  |  |  |  | > 0.5 µM | > 0.5 µM | > 0.5 µM | > 0.5 µM
10 | CCCC(CCC)C(=O)OCO[P@](=O)(N[C@@H](C)C(=O)OCC(CC)CC)OC[C@H]1O[C@@](C#N)(c2ccc3c(N)ncnn23)[C@H](O)[C@@H]1O [Compound 070] |  |  |  |  | 0.1 to 0.5 µM | > 0.5 µM | 0.1 to 0.5 µM | 0.1 to 0.5 µM
11 | CCCC(CCC)C(=O)OCO[P@@](=O)(N[C@@H](C)C(=O)OCC(CC)CC)OC[C@H]1O[C@@](C#N)(c2ccc3c(N)ncnn23)[C@H](O)[C@@H]1O [Compound 071] |  |  |  |  | < 0.1 µM | < 0.1 µM | < 0.1 µM | < 0.1 µM
12 | CCCC(CCC)C(=O)OCO[P@](=O)(N[C@@H](C)C(=O)OC(C)C)OC[C@H]1O[C@@](C#N)(c2ccc3c(N)ncnn23)[C@H](O)[C@@H]1O [Compound 074] |  |  |  |  | < 0.1 µM | 0.1 to 0.5 µM | < 0.1 µM | < 0.1 µM
13 | CCCC(CCC)C(=O)OCO[P@@](=O)(N[C@@H](C)C(=O)OC(C)C)OC[C@H]1O[C@@](C#N)(c2ccc3c(N)ncnn23)[C@H](O)[C@@H]1O [Compound 075] |  |  |  |  | 0.1 to 0.5 µM | > 0.5 µM | 0.1 to 0.5 µM | 0.1 to 0.5 µM
14 | CCC(CC)COC(=O)[C@H](C)N[P@@](=O)(OCOC(=O)OC(C)C)OC[C@H]1O[C@@](C#N)(c2ccc3c(N)ncnn23)[C@H](O)[C@@H]1O [Compound 076] |  |  |  |  | 0.1 to 0.5 µM | 0.1 to 0.5 µM | < 0.1 µM | 0.1 to 0.5 µM
15 | CCN(CC)Cc1cc(Nc2ccnc3cc(Cl)ccc23)ccc1O[P@](=O)(N[C@@H](C)C(=O)OC(C)C)OC[C@H]1O[C@@](C#N)(c2ccc3c(N)ncnn23)[C@H](O)[C@@H]1O [Compound 086] | > 0.5 µM | > 0.5 µM | > 0.5 µM | > 0.5 µM |  |  |  | 
16 | CCN(CC)Cc1cc(Nc2ccnc3cc(Cl)ccc23)ccc1O[P@](=O)(N[C@@H](C)C(=O)OC)OC[C@H]1O[C@@](C#N)(c2ccc3c(N)ncnn23)[C@H](O)[C@@H]1O [Compound 087] | > 0.5 µM | > 0.5 µM | > 0.5 µM | > 0.5 µM |  |  |  | 

Row | Structure (SMILES) | EC50 [1, 3] | EC90 [1, 3] | EC50 [2, 4] | EC90 [2, 5] | EC50 [1, 6] | EC90 [1, 6] | EC50 [2, 7] | EC90 [2, 8]
17 | CCOC(=O)[C@H](C)N[P@](=O)(OC[C@H]1O[C@@](C#N)(c2ccc3c(N)ncnn23)[C@H](O)[C@@H]1O)Oc1ccc(Nc2ccnc3cc(Cl)ccc23)cc1CN(CC)CC [Compound 088] | > 0.5 µM | > 0.5 µM | > 0.5 µM | > 0.5 µM |  |  |  | 
18 | N#C[C@@]1(c2ccc3c(N)ncnn23)O[C@@H]2COP(=O)(O)O[C@H]2[C@H]1O [Compound 094] |  |  |  |  | > 0.5 µM | > 0.5 µM | > 0.5 µM | > 0.5 µM
19 | CCCC(CCC)C(=O)OCO[P@](=O)(N[C@@H](C)C(=O)OC)OC[C@H]1O[C@@](C#N)(c2ccc3c(N)ncnn23)[C@H](O)[C@@H]1O [Compound 095] |  |  |  |  | < 0.1 µM | 0.1 to 0.5 µM | < 0.1 µM | 0.1 to 0.5 µM
20 | CCCC(CCC)C(=O)OCO[P@@](=O)(N[C@@H](C)C(=O)OC)OC[C@H]1O[C@@](C#N)(c2ccc3c(N)ncnn23)[C@H](O)[C@@H]1O [Compound 096] |  |  |  |  | 0.1 to 0.5 µM | 0.1 to 0.5 µM | < 0.1 µM | < 0.1 µM
21 | CCCC(CCC)C(=O)OCO[P@](=O)(N[C@@H](C)C(=O)OCC)OC[C@H]1O[C@@](C#N)(c2ccc3c(N)ncnn23)[C@H](O)[C@@H]1O [Compound 097] |  |  |  |  | 0.1 to 0.5 µM | 0.1 to 0.5 µM | < 0.1 µM | 0.1 to 0.5 µM
22 | CCCC(CCC)C(=O)OCO[P@@](=O)(N[C@@H](C)C(=O)OCC)OC[C@H]1O[C@@](C#N)(c2ccc3c(N)ncnn23)[C@H](O)[C@@H]1O [Compound 098] |  |  |  |  | < 0.1 µM | 0.1 to 0.5 µM | < 0.1 µM | < 0.1 µM
23 | CCC(CC)COC(=O)[C@H](C)NP(=O)(OCC(=O)OC(C)C)OC[C@H]1O[C@@](C#N)(c2ccc3c(N)ncnn23)[C@H](O)[C@@H]1O (stereo partly shown) [Compound 103] |  |  |  |  | > 0.5 µM | > 0.5 µM | > 0.5 µM | > 0.5 µM
24 | CCC(CC)COC(=O)[C@H](C)NP(=O)(OCOC(=O)C(C)C)OC[C@H]1O[C@@](C#N)(c2ccc3c(N)ncnn23)[C@H](O)[C@@H]1O (stereo partly shown) [Compound 104] |  |  |  |  | > 0.5 µM | > 0.5 µM | > 0.5 µM | > 0.5 µM
25 | CCC(CC)COC(=O)[C@H](C)NP(=O)(OC[C@H]1O[C@@](C#N)(c2ccc3c(N)ncnn23)[C@H](O)[C@@H]1O)Oc1ccc(N)cc1C(=O)O (stereo partly shown) [Compound 107] | > 0.5 µM | > 0.5 µM | > 0.5 µM | > 0.5 µM |  |  |  | 
26 | CCCC(CCC)C(=O)OCO[P@](=O)(NC(C)(C)C(=O)OCC(CC)CC)OC[C@H]1O[C@@](C#N)(c2ccc3c(N)ncnn23)[C@H](O)[C@@H]1O [Compound 120] |  |  |  |  | < 0.1 µM | 0.1 to 0.5 µM | < 0.1 µM | 0.1 to 0.5 µM
27 | CCCC(CCC)C(=O)OCO[P@@](=O)(NC(C)(C)C(=O)OCC(CC)CC)OC[C@H]1O[C@@](C#N)(c2ccc3c(N)ncnn23)[C@H](O)[C@@H]1O [Compound 121] |  |  |  |  | 0.1 to 0.5 µM | > 0.5 µM | 0.1 to 0.5 µM | 0.1 to 0.5 µM
28 | CCCC(CCC)C(=O)OCO[P@](=O)(NC(C)(C)C(=O)OC(C)C)OC[C@H]1O[C@@](C#N)(c2ccc3c(N)ncnn23)[C@H](O)[C@@H]1O [Compound 122] |  |  |  |  | 0.1 to 0.5 µM | 0.1 to 0.5 µM | 0.1 to 0.5 µM | 0.1 to 0.5 µM
29 | CCCC(CCC)C(=O)OCO[P@@](=O)(NC(C)(C)C(=O)OC(C)C)OC[C@H]1O[C@@](C#N)(c2ccc3c(N)ncnn23)[C@H](O)[C@@H]1O [Compound 123] |  |  |  |  | 0.1 to 0.5 µM | > 0.5 µM | 0.1 to 0.5 µM | 0.1 to 0.5 µM
30 | CCC(CC)COC(=O)[C@H](C)N[P@]1(=O)OC[C@H]2O[C@@](C#N)(c3ccc4c(N)ncnn34)[C@H](O)[C@@H]2O1 [Compound 126] |  |  |  |  | < 0.1 µM | 0.1 to 0.5 µM | < 0.1 µM | 0.1 to 0.5 µM
31 | N#C[C@@]1(c2ccc3c(N)ncnn23)O[C@H](COP(=O)(OCOC(=O)C2CCCC2)OCOC(=O)C2CCCC2)[C@@H](O)[C@H]1O [Compound 265] |  |  |  |  |  |  | > 0.5 µM | > 0.5 µM
32 | N#C[C@@]1(c2ccc3c(N)ncnn23)O[C@H](COP(=O)(OCOC(=O)OC2CCCC2)OCOC(=O)OC2CCCC2)[C@@H](O)[C@H]1O [Compound 277] |  |  |  |  |  |  | < 0.1 µM | 0.1 to 0.5 µM
